Test results reported in US10940210B2, “BSH complex for boron neutron capture therapy” (National University Corporation Okayama University, priority 2016, dated 2021).

Experiments:
[1] = test system: glioma cell line U87ΔEGFR; assay: Delivery of complex into a cancer cell, boron concentration in the cell by ICP-AES; format: cell-based, human; details: BSH 2 mM alone or with A6K (hydrochloride salt) 200 μM, 37° C. for 24 hours
Experimental: Mixing times were 10 minutes, 30 minutes, and 180 minutes. The obtained complex was diluted (pH 7.1 to 7.3) with PBS and added to a glioma cell line U87ΔEGFR in a petri dish. […] Each cell sample obtained by incubating, with the complex, at 37° C. for 3 hours, 12 hours, and 24 hours was subjected to ICP-AES thereby to measure a boron concentration in the cell. […] The incubation time of 12 hours was sufficient. […] The time for mixing with stirring of 10 minutes was sufficient. Increases in the BSH amounts in the cell were detected as an incubation time was extended.
A6R (TFA salt) and BSH were mixed with stirring by the same method as the method described in the above (1) to prepare a complex. The obtained complex was diluted (pH 7.1 to 7.3) with PBS and added to a glioma cell line U87ΔEGFR in a petri dish. Each cell sample obtained by incubating, with the complex, at 37° C. for 6 hours, 12 hours, and 24 hours was subjected to ICP-AES thereby to measure a boron concentration in the cell.
The complex containing A6K (hydrochloride salt) and BSH obtained in the above (1) (a molar ratio of A6K (hydrochloride salt):BSH was 1:10) was added to a glioma cell line U87ΔEGFR in a similar procedure to that described in Example 2 (2). The complex was added in an amount in such a way that final concentrations of A6K (hydrochloride salt) and BSH were as shown in FIG. 11. […]

[2] = test system: U87ΔEGFR brain tumor; assay: Tumor-specific introduction of BSH in brain tumor model animal, anti-BSH immunohistostaining; format: in vivo, mouse; details: 200 μL tail vein, BSH 20 mM (with A6K 2 mM in complex); 12 hours after administration
Experimental: Animals used in the present experiment were bred, housed and used in accordance with the procedure approved (approval code: OKU-2016475) by the Animal Care and Use Committee, Okayama University. Tumor-bearing model mice (BALB/C nu/nu, female, 6 to 8 weeks of age, 25 g, Japan SLC, Inc., Shizuoka) were created by directly injecting 3 μL of a U87ΔEGFR cell suspension (1×10^5 cells/μL) into the brain. Two weeks later, 200 μL of the complex containing A6K and BSH (A6K 2 mM/BSH 20 mM) and 200 μL of BSH 20 mM as control experiments were respectively administered from the tail vein (given that a mouse body weight was 20 g, A6K-HCl was converted to 8 mg/kg and BSH was converted to 33.4 mg/kg.)
The complex used in the experiment (the compound described in Example 4 (1)) was prepared as follows. 70 μL of MQ water was added to 70 μL of A6K 10 mM to adjust to A6K 5 mM. […]
Twelve hours after administration, the mouse brain was embedded using an embedding medium for a frozen tissue section, tissue tek O.C.T compound. […] After washing, the section was immersed for 2 hours at room temperature in a solution of a donkey anti-mouse antibody (Life Technologies) labelled with Alexa-Fluor 488 (green fluorescence) (20 μg/mL) and a solution of a goat anti-rabbit antibody (Life Technologies) labelled with Alexa-Fluor 555 (red fluorescence) (2 μg/mL). […]

presence of BSH in brain tissue (green fluorescence) [2]: weak
Substance: mercaptoundecahydrododecaborate [BSH]
intracellular boron concentration [1]: 595.2±105.1 ng/10^6 cells | location of BSH relative to tumor tissue (HLA-A positive) [2]: not different between tumor tissues and normal brain tissues
